From BindingDB's records for doi:10.1016/j.ejmech.2019.111726 (Jinan University, 2019)

Legend:
[1] = Reversal of P-gp mediated multidrug resistance in human MCF7/ADM cells assessed as doxorubicin IC50 at 5 uM measured within 48 hrs by MTT assay (Rvb = 151.7 +/- 5 uM)
[2] = Reversal of P-gp mediated multidrug resistance in human MCF7/ADM cells assessed as doxorubicin IC50 at 10 uM measured within 48 hrs by MTT assay (Rvb = 151.7 +/- 5 uM)
[3] = Reversal of P-gp mediated multidrug resistance in human HepG2/DOX cells assessed as doxorubicin IC50 at 5 uM measured within 48 hrs by MTT assay (Rvb = 69.3 +/- 3.9 uM)
[4] = Reversal of P-gp mediated multidrug resistance in human HepG2/DOX cells assessed as doxorubicin IC50 at 10 uM measured within 48 hrs by MTT assay (Rvb = 69.3 +/- 3.9 uM)

IC50 [1]: 14600 nM | IC50 [2]: 1200 nM | IC50 [3]: 1400 nM | IC50 [4]: 300 nM
Structure (SMILES): CCCN(C(=O)CCCCCCC(=O)N(CCC)[C@H]1CC2=CC(=O)O[C@]23C[C@H]1N1CCCC[C@H]13)[C@H]1CC2=CC(=O)O[C@]23C[C@H]1N1CCCC[C@H]13
